This is an account of results in patent publication US20260207626A1, “SYNTHETIC TRITERPENOIDS AND COMPOSITIONS THEREOF IN WEIGHT MANAGEMENT, SKELETAL MUSCLE FUNCTION, AND APPETITE SUPPRESSION” (The Board of Regents of the University of Texas System, priority 2022, published 2026).

Data set [1] concerns heme-oxygenase-1 and Nrf2/ARE signaling. To be noted: Liby et al., 2005; cited from earlier work.
The test system of data set [2] is transforming growth factor-β (TGF-β)/Smad signaling. To be noted: Suh et al., 2003, Minns et al., 2004, Mix et al.; cited from earlier work.
Another data set has as its system IκB-α. Particulars: Saha et al.; liver homogenates, HFD mice; cited from earlier work.
Another data set relates to AMPK. To be noted: Saha et al.; cited from earlier work.
For data set [3] the following is noted: Shin et al.; oral gavage 30 μmol/kg three times a week, HFD 82 days; interpretation questioned by the applicant; cited from earlier work.
A further data set relates to N171-82Q mice. Particulars: cited from earlier work.
Another data set deals with MCP-1. The experiment in a line: LPS-induced MCP-1 ELISA in RAW264.7 macrophages (CDDO-EA batches). It counts as cell-based, mouse. To be noted: for MCP-1 production: LPS-induced, macrophages in cell culture; for MCP-1 level (ELISA), average: Table 4 (two values); for fold difference in the decrease of MCP-1 production: versus LPS alone. As to the method:
Macrophages were pre-treated with 500 nM CDDO-EA #1 or 500 nM CDDO-EA #2, for 1 hour. The microphages were then stimulated with 100 ng/ml of lipopolysaccharide (LPS) for 6 hr. Supernatants were collected from each culture. An enzyme linked immunoassay (ELISA) was performed to detect levels of the pro-inflammatory protein, monocyte chemotactic protein-1 (MCP-1). The macrophages were also treated with LPS alone or with CDDO-EA alone. A control (no treatment) group was also included in the study.
The second batch of CDDO-EA was tested for its biological property of anti-inflammatory activity. As with the first batch of CDDO-EA, this was tested by using the mouse macrophage cell line RAW264.7. RAW264.7 macrophages were pre-treated with 500 nM CDDO-EA for 1 hour then stimulated with 100 ng/ml of lipopolysaccharide (LPS) for 6 hr. Supernatants were collected, and an enzyme linked immunoassay (ELISA) was performed to detect the pro-inflammatory protein, monocyte chemotactic protein-1 (MCP-1). The macrophages were also treated with LPS alone or with CDDO-EA alone. A control (no treatment) group was also included in the study. […] This suppression of MCP-1 production by the second batch CDDO-EA is similar to that observed for the first batch of CDDO-EA. (See FIG. 21).
(In an ELISA, binding on a coated surface is turned into a signal by an enzyme label.)

Data set [4] has as its system GLUT4. The experiment in a line: GLUT4myc translocation by immunofluorescence in L6-GLUT4myc myotubes. Particulars: CDDO-EA 500 nM 1 h; insulin 100 nM 15 min. The format is cell-based, rat. As to the method: Immunofluorescence and confocal microscopy were employed to visualize the localization of c-myc epitope-tagged GLUT4 in L6-GLUT4myc myotubes treated with CDDO-EA for 1 h. L6-GLUT4myc myotubes were also treated with insulin alone for 15 min as a positive control.
To examine the properties of CDDO-EA in regulating glucose metabolism in the skeletal muscle, the present study examined whether CDDO-EA induces translocation of GLUT4 to the cell surface (FIG. 16A). Immunofluorescence and confocal microscopy were used to visualize the localization of c-myc epitope-tagged GLUT4 in L6-GLUT4myc cells.
Immunofluorescence microscopy: L6-GLUT4myc myoblasts (4×10^4 cells/ml, 0.2 ml/well) were plated onto Nunc Lab-TekII 8-chamber slides (Thermo Fisher Scientific) and differentiated for 7 days. Myotubes were pre-treated with CDDO-EA 500 nM for 1 h followed by LPS 100 ng/ml (E. coli O111: B4, Sigma Aldrich) treatment for 1 h. After treatment, myotubes were fixed, permeabilized, and stained with anti-NF-κB p65 primary antibody (cat #sc-372, 1:100, Santa Cruz Biotechnology) and a goat anti-rabbit secondary antibody conjugated with Alexa Fluor® 488 (cat #A32731, 1:500, Invitrogen) as previously described. For GLUT4myc cell membrane staining, myotubes were pre-treated with CDDO-EA 500 nM for 1 h followed by LPS 100 ng/ml (E. coli 0111: B4, Sigma Aldrich) treatment for 1 h. Insulin 100 nM (cat #19278, Sigma Aldrich) treatment was for 15 min. After CDDO-EA, LPS, and insulin treatment, myotubes were fixed without permeabilization and stained with anti-c-myc primary antibody (cat #C3956, 1:100, Sigma Aldrich) and a goat anti-rabbit secondary antibody conjugated with Alexa Fluor® 488 (cat #A32731, 1:500, Invitrogen) as previously described.

The subject of data set [5] is GLUT4. The experiment in a line: Colorimetric assay of cell surface GLUT4 in L6GLUT4myc myotubes (preliminary data). It counts as cell-based, rat. To be noted: FIG. 30. The procedure: Is CDDO-EA-mediated GLUT4 translocation dependent on AMPK activation? The catalytic subunit alpha-1 (α1) of AMPK will be KD by siRNA. Cells will be treated with CDDO-EA (500 nM, 1 hour), insulin ([…] for 15 min), or insulin and CDDO-EA to determine if there is a synergistic effect on GLUT4 translocation. Also, cells will be treated with the AMPK activator, 5-aminoimidazole-4-carboxamide ribonucleoside (AICAR, 1 mM, 40 minutes), as a positive control. We will use a colorimetric assay to quantitatively measure the levels of cell surface GLUT4 in 3T3-L1 adipocytes and L6GLUT4myc myotubes^37. […] GLUT4 translocation will be detected via immunofluorescence. Subcellular protein fractionation will be conducted to detect GLUT4 in the sarcolemma for myotubes and plasma membrane for adipocytes and GLUT2 in the plasma membrane of hepatocytes via Western blotting. GLUT2 will be measured in hepatocytes because GLUT2 is the most abundant glucose transporter in hepatocytes^38. To measure glucose uptake, a non-radioactive, plate-based bioluminescent assay (Glucose Uptake-Glo, Promega) will be performed. Using Glucose Uptake-Glo, insulin induces glucose uptake in L6GLUT4my myotubes. Phosphorylation of AMPK at Thr^172 and phosphorylation of ACC at Ser^79 indicates activation of the AMPK pathway. Thus, phosphorylation of AMPK Thr^172 and ACC Ser^79 will be shown through Western blotting. […]

The mark [6] stands for this setting: RAW264.7, 500 nM CDDO-EA batch 1 hour then 100 ng/ml LPS 6 hr.
Setting [7] is: RAW264.7, 500 nM CDDO-EA batch alone, no LPS.
Setting [8] is: 500 nM CDDO-EA batch 1 hour then 100 ng/ml LPS 6 hr.
The mark [9] stands for this setting: 500 nM CDDO-EA batch alone, no LPS.
[10] abbreviates: Table 5, 500 nM CDDO-EA batch 1 hour then 100 ng/ml LPS 6 hr.
The mark [11] stands for this setting: Table 5, 500 nM CDDO-EA batch alone, no LPS.

“And” between values parts separate entries of the source, which are not always exact repeats. Identical values can stand only once.

In the case of `COC(=O)[C@]12CCC(C)(C)C[C@H]1C1C(=O)C=C3[C@@]4(C)C=C(C#N)C(=O)C(C)(C)[C@@H]4CC[C@@]3(C)[C@]1(C)CC2` (stereo partly drawn) [CDDO-Me, methyl (4aS,6aR,6bS,8aR,12aS,14bS)-11-cyano-2,2,6a,6b,9,9,12a-heptamethyl-10,14-dioxo-1,3,4,5,6,6a,6b,7,8,8a,9,10,12a, 14,14a, 14b-hexadecahydropicene-4a (2H)-carboxylate], the “induction of heme-oxygenase-1 and Nrf2/ARE signaling” value in data set [1] was “potent inducers of heme-oxygenase-1 and Nrf2/ARE signaling”. Also, the “modulation of TGF-β/Smad signaling” value in data set [2] was “ability to modulate transforming growth factor-β (TGF-β)/Smad signaling”. The “phosphorylation of IκB-α” value in the data set on IκB-α is reported as “increase in phosphorylation of IκB-α”. The AMPK signaling result in the data set on AMPK was “activated AMPK signaling in isolated mouse hepatocytes and C2C12 muscle cells”.

Consider `CC1(C)CC[C@]2(C(=O)n3ccnc3)CC[C@]3(C)[C@H](C(=O)C=C4[C@@]5(C)C=C(C#N)C(=O)C(C)(C)[C@@H]5CC[C@]43C)[C@@H]2C1` [CDDO-Im], for which the “induction of heme-oxygenase-1 and Nrf2/ARE signaling” value in data set [1] is “potent inducers of heme-oxygenase-1 and Nrf2/ARE signaling”. Besides, in data set [2], the “modulation of TGF-β/Smad signaling” value was “ability to modulate transforming growth factor-β (TGF-β)/Smad signaling”. The “energy expenditure (EE)” value in [3] is given as “increases energy expenditure (EE) in mice fed a HFD”.

With `CC1(C)CC[C@]2(C(=O)NCC(F)(F)F)CC[C@]3(C)[C@H](C(=O)C=C4[C@@]5(C)C=C(C#N)C(=O)C(C)(C)[C@@H]5CC[C@]43C)[C@@H]2C1` [CDDO-TFEA], the “muscle strength and balance, survival” value with N171-82Q mice (N171-82Q mice) is “improved muscle strength and balance and increased survival”. In the data set on N171-82Q mice (Stack et al. (2010)), the “accumulation in the skeletal muscle” value was “accumulated in the skeletal muscle” and the “oxidative stress in skeletal muscle” value is on record as “oxidative stress in skeletal muscle was reduced”.

In the data set with MCP-1 (listed as Batch #1 CDDO-EA), `CCNC(=O)[C@]12CCC(C)(C)C[C@H]1C1C(=O)C=C3[C@@]4(C)C=C(C#N)C(=O)C(C)(C)[C@@H]4CC[C@@]3(C)[C@]1(C)CC2` (stereo partly drawn) [CDDO-EA #1, (4aS,6aR,6bS,8aR,12aS,14bS)-11-cyano-N-ethyl-2,2,6a,6b,9,9,12a-heptamethyl-10,14-dioxo-1,3,4,5,6,6a,6b,7,8,8a,9,10,12a, 14,14a, 14b-hexadecahydropicene-4a (2H)-carboxamide] showed an MCP-1 production of 31300 pg/mL. Further, the “MCP-1 level (ELISA), individual values” in the data set on MCP-1 (setting [6]) is 30687 and 31996 and 20309 and 17055; with MCP-1 (setting [7]), 717 and 655 and 740 and 870. Also, the “MCP-1 level (ELISA), average” value with MCP-1 (setting [8]) is reported as 31341; in the data set with MCP-1 (setting [9]), 686. Also, the “MCP-1 level (ELISA), mean of four values” in the data set with MCP-1 (setting [10]) came to 25012; in the data set on MCP-1 (setting [11]) it was 746. In addition, the “fold difference in the decrease of MCP-1 production” value in the data set with MCP-1 (listed as Batch #1 CDDO-EA) is given as “about 3.6 fold”.

Regarding `CCNC(=O)[C@]12CCC(C)(C)C[C@H]1C1C(=O)C=C3[C@@]4(C)C=C(C#N)C(=O)C(C)(C)[C@@H]4CC[C@@]3(C)[C@]1(C)CC2` (stereo partly drawn) [CDDO-EA #2, (4aS,6aR,6bS,8aR,12aS,14bS)-11-cyano-N-ethyl-2,2,6a,6b,9,9,12a-heptamethyl-10,14-dioxo-1,3,4,5,6,6a,6b, 7,8,8a,9,10,12a, 14,14a, 14b-hexadecahydropicene-4a (2H)-carboxamide], the MCP-1 production in the data set on MCP-1 (listed as Batch #2 CDDO-EA) was 24600 pg/mL. Also, in the data set with MCP-1 (RAW264.7, 500 nM 1 hour then 100 ng/ml LPS 6 hr), the “LPS-induced production of MCP-1” value was “blocked the LPS-induced production of MCP-1”. The “MCP-1 level (ELISA), individual values” was 23503 and 25793 and 11890 and 14316 in the data set on MCP-1 (setting [6]); 481 and 497 and 314 and 587 in the data set with MCP-1 (setting [7]). The “MCP-1 level (ELISA), average” value in the data set on MCP-1 (setting [8]) came out at 24648; in the data set on MCP-1 (setting [9]), 489. Further, the “MCP-1 level (ELISA), mean of four values” was found to be 18875 in the data set with MCP-1 (setting [10]) and 470 with MCP-1 (setting [11]). Further, the “fold difference in the decrease of MCP-1 production” value with MCP-1 (listed as Batch #2 CDDO-EA) was around 4.6 fold.

Take “Insulin: positive control for GLUT4myc translocation, 100 nM for 15 min [reference compound]”: in the data set on GLUT4 [4], the “GLUT4myc translocation to the cell surface” value is reported as “induced GLUT4myc translocation into the cell membrane”. Besides, in the data set with GLUT4 [5], the “GLUT4 translocation to the cell surface (colorimetry assay)” value is given as “induce GLUT4 translocation to the cell surface”.
